Several values for one entry are separate records, joined by “and”; a condition that tells them apart may be missing. Identical values can stand only once.
Key:
[1] = MTD (Maximum Tolerated Dose) determination, single iv administration; type: in vivo; settings: mice, iv/SD (single dose), monitored up to 14 days; for MTD at 14 days: female, mouse, in vivo
Text: (§1) Female CD-1 or Athymic Nude-Fox1 nu/nu mice (Envigo) were utilized for all experiments. […] Animals were acclimated for five days prior to being individually tattoo-identified. Animal protocols were reviewed and approved according to the regional Institutional Animal Care and Use Committees.
(§2) Mice were randomly allocated into experimental groups and intravenously administered, once for the MTD (Maximum Tolerated Dose) determination or one administration a week during three consecutive weeks, for the MTMD (Maximum Tolerated Multiple Dose) determination study. The animals were administered with white formulation or with compound dissolved in the experimental formulation at different concentrations. The volume administered was always […]. Once administered, animals were monitored for clinical signs of systemic toxicity, changes in body weight and mortality up to 14 days after the administration.

[2] = MTMD (Maximum Tolerated Multiple Dose) determination, iv weekly x 3; type: in vivo; settings: mice; iv/Q7d × 3
Text: as §1, §2

[3] = system: HT1080 tumors; experiment: Human fibrosarcoma xenograft, total diameter (tumor + leg)
[4] = system: A549 cells (lung carcinoma, NSCLC); experiment: cells; settings: Homo sapiens, A549, 72 h; for CC50: read-out: LC50; for IC (total growth inhibition): read-out: TGI
Outline: (§3)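 Cells seeded at 5000/well, attached 18 h, then exposed 72 h to ten 2/5 serial dilutions (10 to 0.003 μg/mL; 1% DMSO final) in triplicate; time-zero plate fixed. SRB staining after glutaraldehyde fixation; growth effects by NCI algorithm, four-parameter logistic fit.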

[5] = system: HT29 cells (colorectal adenocarcinoma); experiment: cells; settings: Homo sapiens, HT-29, 72 h; for CC50: read-out: LC50; for IC (total growth inhibition): read-out: TGI
Outline: as §3

[6] = system: MDA-MB-231 cells (breast adenocarcinoma); experiment: cells; settings: Homo sapiens, MDA-MB-231, 72 h; for CC50: read-out: LC50; for IC (total growth inhibition): read-out: TGI
Outline: as §3

[7] = system: PSN1 cells (pancreas adenocarcinoma); experiment: cells; settings: Homo sapiens, PSN1, 72 h; for IC (total growth inhibition): read-out: TGI
Outline: as §3

[8] = system: P388 lymphoma; settings: U.S. Pat. No. 5,149,804; cited from earlier work
[9] = system: B16 melanoma; settings: U.S. Pat. No. 5,149,804; cited from earlier work
[10] = system: Lewis lung carcinoma; settings: U.S. Pat. No. 5,149,804; cited from earlier work
[11] = system: xenografted human tumor cell lines (breast, kidney and ovarian cancer); settings: xenografted human tumor cell lines in mice (breast, kidney and ovarian cancer); cited from earlier work
[12] = system: MDA-MB-231 tumors; experiment: Human breast xenograft, tumor volume
Description: (§4) Female athymic nu/nu mice (Harlan Laboratories Models, S.L. Barcelona, Spain or Envigo, Spain) were utilized for all experiments. Animal were housed in individually ventilated cages Sealsafe® Plus, Techniplast S.P.A.), up to ten per cage on a 12-hour light-dark cycle at 21-23° C. and 40-60% humidity. […] Animals were acclimated for at least 5 days prior to tumor implantation with a tumor cell suspension.
MDA-MB-231 cells were maintained in vitro at 37° C. with 5% CO2 in Dulbecco's Modified Eagle's Medium (Sigma-Aldrich, Co). Culture cells were passaged every 3 to 5 days upon reaching confluence.
(§5) Treatment tolerability was assessed by monitoring body weight evolution, clinical signs of systemic toxicity, as well as evidences of local damage in the injection site.
(§6) In Xenograft Studies with Other Cell Lines: • Tumor volume was calculated using the equation (a·b^2)/2, where a: length (longest diameter) and b: width (shortest diameter) were measured in mm by using digital caliper (Fowler Sylvac, S235PAT).
(§7) Treatments producing >20% lethality and/or 20% net body weight loss were considered toxic.

[13] = system: A2780 tumors; experiment: Human ovarian xenograft, tumor volume
Description: as §4
Culture cells were passaged every 3 to 5 days upon reaching confluence. Each animal was subcutaneously implanted (on the right flank using 26G needle and a 1 cc syringe) at 4-6 weeks of age with 10×10^6 A2780 cells suspended in 0.05 mL of a solution consisting of 50% Matrigel® (Corning Incorporated Life Sciences) and 50% medium without serum or antibiotics.
as §5, §6, §7

[14] = system: HGC27 tumors; experiment: Human gastric xenograft, tumor volume
Description: as §4
HGC27 cells were maintained in vitro at 37° C. with 5% CO2 in Iscove's Modified Dulbecco's Medium (Sigma Aldrich, Co). Culture cells were passage every 3 to 5 days on reaching confluence. Each animal was subcutaneously implanted (on the right flank using 26G needle and a 1 cc syringe) at 4-6 weeks of age with 5×10^6 HGC-27 cells suspended in 0.05 mL of a solution consisting of 50% Matrigel® (Corning Incorporated Life Sciences), 50% medium without serum or antibiotics.
as §5, §6, §7

[15] = system: H460 tumors; experiment: Human lung (NSCLC) xenograft, tumor volume
Description: as §4
H460 cells were maintained in vitro at 37° C. with 5% CO2 in Dulbecco's Modified Eagle's Medium (Sigma-Aldrich, Co). Culture cells were passaged every 3 to 5 days upon reaching confluence. Each animal was subcutaneously implanted (on the right flank using 26G needle and a 1 cc syringe) at 4-6 weeks of age with 5×10^6 H460 cells suspended in 0.05 mL of a solution consisting of 50% Matrigel® (Corning Incorporated Life Sciences) and 50% medium without serum or antibiotics.
as §5, §6, §7
Tables and figures summarize the data obtained from complete experimental groups, i.e. those groups keeping the initial number of animals, n=8-10.

[16] = Day 7, iv Days 0, 7 and 14, PM01183 […], 4-R 0.30 mg/kg
[17] = Day 9, iv Days 0, 7 and 14, PM01183 […], 4-R 0.30 mg/kg
[18] = Day 14, iv Days 0, 7 and 14, PM01183 […], 4-R 0.30 mg/kg
[19] = Day 21, iv Days 0, 7 and 14, PM01183 […], 4-R 0.30 mg/kg
[20] = Day 23, iv Days 0, 7 and 14, PM01183 […], 4-R 0.30 mg/kg

COc1c(C)cc2c(c1O)[C@@H]1[C@@H]3[C@@H]4SC[C@]5(N[C@@H](CO)Cc6c5[nH]c5ccccc65)C(=O)OC[C@@H](c5c6c(c(C)c(OC(C)=O)c54)OCO6)N3[C@@H](O)[C@H](C2)N1C [Compound 4-R]
MTD [1]: 0.25 mg/kg | MTMD [2]: 0.30 mg/kg | Total diameter (tumor + leg) ([3]; Day 0, iv Days 0, 7 and 14, PM01183 […], 4-R 0.30 mg/kg): 8.1 mm | Total diameter (tumor + leg) ([3]; Day 2, iv Days 0, 7 and 14, PM01183 […], 4-R 0.30 mg/kg): 8.6 mm | Total diameter (tumor + leg) [3, 16]: 8.7 mm | Total diameter (tumor + leg) [3, 17]: 9.0 mm | Total diameter (tumor + leg) [3, 18]: 9.3 mm | Total diameter (tumor + leg) ([3]; Day 18, iv Days 0, 7 and 14, PM01183 […], 4-R 0.30 mg/kg): 10.3 mm | Total diameter (tumor + leg) [3, 19]: 11.5 mm | Total diameter (tumor + leg) [3, 20]: 13.3 mm | Total diameter (tumor + leg) ([3]; Day 25, iv Days 0, 7 and 14, PM01183 […], 4-R 0.30 mg/kg): 15.8 mm | Total diameter (tumor + leg) ([3]; Day 28, iv Days 0, 7 and 14, 4-R 0.30 mg/kg): 18.0 mm

COc1ccc2[nH]c3c(c2c1)C[C@H](CO)N[C@]31CS[C@@H]2c3c(OC(C)=O)c(C)c4c(c3[C@H](COC1=O)N1[C@@H]2[C@H]2c3c(cc(C)c(OC)c3O)C[C@@H]([C@@H]1O)N2C)OCO4 [Compound 19-R]
CC50 [4]: > 123 nM | IC (total growth inhibition) [4]: 0.00356 µM | CC50 [5]: > 123 nM | IC (total growth inhibition) [5]: 0.00172 µM | CC50 [6]: > 123 nM | IC (total growth inhibition) [6]: 0.00135 µM | IC (total growth inhibition) [7]: 0.00135 µM | MTD at 14 days [1]: 0.15 mg/kg | MTMD [2]: 0.15 mg/kg

COc1ccc2[nH]c3c(c2c1)C[C@@H](CO)N[C@]31CS[C@@H]2c3c(OC(C)=O)c(C)c4c(c3[C@H](COC1=O)N1[C@@H]2[C@H]2c3c(cc(C)c(OC)c3O)C[C@@H]([C@@H]1O)N2C)OCO4 [Compound 19-S]
GI50 [4]: 3.07 nM | CC50 [4]: > 123 nM | IC (total growth inhibition) [4]: 0.00331 µM | GI50 [5]: 1.35 nM | CC50 [5]: > 123 nM | IC (total growth inhibition) [5]: 0.0016 µM | GI50 [6]: 1.96 nM | CC50 [6]: 11 nM | IC (total growth inhibition) [6]: 0.00331 µM | GI50 [7]: 2.95 nM | CC50 ([7]; read-out: LC50): > 123 nM | IC (total growth inhibition) [7]: 0.00319 µM | MTD at 14 days [1]: 0.5 mg/kg | MTMD [2]: 0.75 mg/kg

COc1c(C)cc2c(c1O)[C@@H]1[C@@H]3[C@@H]4SC[C@]5(NCCc6c5[nH]c5ccccc65)C(=O)OC[C@@H](c5c6c(c(C)c(OC(C)=O)c54)OCO6)N3[C@@H](O)[C@H](C2)N1C [ET-736, Ecteinascidin 736]
MTMD [2]: 0.5 mg/kg | protection of mice in vivo [8]: protects mice in vivo at very low concentrations | protection of mice in vivo [9]: protects mice in vivo at very low concentrations | protection of mice in vivo [10]: protects mice in vivo at very low concentrations

COc1ccc2[nH]c3c(c2c1)CCN[C@]31CS[C@@H]2c3c(OC(C)=O)c(C)c4c(c3[C@H](COC1=O)N1[C@@H]2[C@H]2c3c(cc(C)c(OC)c3O)C[C@@H]([C@@H]1O)N2C)OCO4 [PM01183, reference compound]
in vivo activity [11]: significant in vivo activity | Median Tumor Volume ([12]; Day 4): 177.2 mm^3 | Median Tumor Volume ([12]; Day 7): 189.0 mm^3 and 185.9 mm^3 and 186.3 mm^3 | Median Tumor Volume ([12]; Day 11): 250.7 mm^3 | Median Tumor Volume ([12]; Day 14): 230.1 mm^3 and 290.8 mm^3 and 266.1 mm^3 | Median Tumor Volume ([12]; Day 18): 327.7 mm^3 | Median Tumor Volume ([12]; Day 21): 305.9 mm^3 and 337.9 mm^3 and 391.0 mm^3 | Median Tumor Volume ([12]; Day 25): 493.1 mm^3 | Median Tumor Volume ([12]; Day 28): 535.8 mm^3 and 507.4 mm^3 and 627.3 mm^3 | Median Tumor Volume ([12]; Day 32): 789.0 mm^3 | Median Tumor Volume ([12]; Day 35): 819.7 mm^3 and 796.1 mm^3 | Median Tumor Volume ([12]; Day 36): 1022.0 mm^3 | Median Tumor Volume ([12]; Day 39): 1294.2 mm^3 | Median Tumor Volume ([12]; Day 42): 962.7 mm^3 and 1062.5 mm^3 and 1643.3 mm^3 | Median Tumor Volume ([12]; Day 46): 1658.9 mm^3 | Median Tumor Volume ([12]; Day 49): 1301.3 mm^3 and 1416.3 mm^3 and 1938.0 mm^3 | Median Tumor Volume ([12]; Day 52): 2199.4 mm^3 | Median Tumor Volume ([12]; Day 56): 1673.3 mm^3 | Median Tumor Volume ([12]; Day 63): 1811.9 mm^3 | Median Tumor Volume ([13]; Day 2): 235.5 mm^3 and 236.5 mm^3 | Median Tumor Volume ([13]; Day 3): 454.5 mm^3 | Median Tumor Volume ([13]; Day 4): 463.2 mm^3 | Median Tumor Volume ([13]; Day 5): 671.2 mm^3 and 772.1 mm^3 | Median Tumor Volume ([13]; Day 7): 1048.9 mm^3 and 1161.5 mm^3 and 986.3 mm^3 | Median Tumor Volume ([13]; Day 9): 1451.4 mm^3 | Median Tumor Volume ([13]; Day 10): 1615.6 mm^3 | Median Tumor Volume ([13]; Day 11): 2062 mm^3 and 2062.0 mm^3 | Median Tumor Volume ([13]; Day 12): 2020.3 mm^3 and 1703.0 mm^3 | Median Tumor Volume ([13]; Day 14): 2029.3 mm^3 | Median Tumor Volume ([14]; Day 2): 317.5 mm^3 and 372.4 mm^3 and 395.6 mm^3 | Median Tumor Volume ([14]; Day 5): 404.0 mm^3 and 474.1 mm^3 and 572.4 mm^3 | Median Tumor Volume ([14]; Day 7): 485.7 mm^3 and 571.8 mm^3 and 766.6 mm^3 | Median Tumor Volume ([14]; Day 9): 604.6 mm^3 and 787.9 mm^3 and 950.7 mm^3 | Median Tumor Volume ([14]; Day 12): 760.8 mm^3 and 951.1 mm^3 | Median Tumor Volume ([14]; Day 14): 789.6 mm^3 and 1064.4 mm^3 and 1199.4 mm^3 | Median Tumor Volume ([14]; Day 16): 719.5 mm^3 and 1346.1 mm^3 and 1353.1 mm^3 | Median Tumor Volume ([14]; Day 19): 895.9 mm^3 and 1691.8 mm^3 and 1294.3 mm^3 | Median Tumor Volume ([14]; Day 21): 1051.3 mm^3 and 1920.0 mm^3 and 1335.1 mm^3 | Median Tumor Volume ([14]; Day 23): 2011.4 mm^3 and 1320.3 mm^3 | Median Tumor Volume ([14]; Day 26): 1901.2 mm^3 and 2102.2 mm^3 and 1364.5 mm^3 | Median Tumor Volume ([14]; Day 28): 2028.9 mm^3 | Median Tumor Volume ([14]; Day 30): 1671.9 mm^3 | Median Tumor Volume ([14]; Day 33): 2009.2 mm^3 | Median Tumor Volume ([15]; Day 2): 457.0 mm^3 | Median Tumor Volume ([15]; Day 4): 861.5 mm^3 | Median Tumor Volume ([15]; Day 7): 940.4 mm^3 and 1004.0 mm^3 and 1280.2 mm^3 | Median Tumor Volume ([15]; Day 9): 1210.3 mm^3 and 1211.3 mm^3 and 1424.9 mm^3 | Median Tumor Volume ([15]; Day 11): 1433.8 mm^3 and 1969.9 mm^3 | Median Tumor Volume ([15]; Day 12): 1515.4 mm^3 | Median Tumor Volume ([15]; Day 14): 1529.5 mm^3 and 1633.3 mm^3 | Median Tumor Volume ([15]; Day 16): 1723.9 mm^3 | Median Tumor Volume ([15]; Day 19): 2112.3 mm^3 | Median Tumor Volume ([15]; Day 21): 2409.4 mm^3 | Total diameter (tumor + leg) ([3]; Day 2): 9.8 mm | Total diameter (tumor + leg) ([3]; Day 2, iv Days 0, 7 and 14, PM01183 […], Compound D 0.5 mg/kg): 9.2 mm | Total diameter (tumor + leg) ([3]; Day 5): 9.7 mm | Total diameter (tumor + leg) ([3]; Day 7): 11.4 mm | Total diameter (tumor + leg) [3, 16]: 11.2 mm | Total diameter (tumor + leg) ([3]; Day 7, iv Days 0, 7 and 14, PM01183 […], Compound D 0.5 mg/kg): 12.2 mm | Total diameter (tumor + leg) ([3]; Day 9): 12.7 mm | Total diameter (tumor + leg) [3, 17]: 12.3 mm | Total diameter (tumor + leg) ([3]; Day 9, iv Days 0, 7 and 14, PM01183 […], Compound D 0.5 mg/kg): 12.6 mm | Total diameter (tumor + leg) ([3]; Day 12): 13.7 mm | Total diameter (tumor + leg) ([3]; Day 12, iv Days 0, 7 and 14, PM01183 […], Compound D 0.5 mg/kg): 13.1 mm | Total diameter (tumor + leg) ([3]; Day 14): 14.6 mm | Total diameter (tumor + leg) [3, 18]: 14.6 mm | Total diameter (tumor + leg) ([3]; Day 14, iv Days 0, 7 and 14, PM01183 […], Compound D 0.5 mg/kg): 14.6 mm | Total diameter (tumor + leg) ([3]; Day 16): 15.5 mm | Total diameter (tumor + leg) ([3]; Day 16, iv Days 0, 7 and 14, PM01183 […], Compound D 0.5 mg/kg): 14.5 mm | Total diameter (tumor + leg) ([3]; Day 19): 15.6 mm | Total diameter (tumor + leg) ([3]; Day 19, iv Days 0, 7 and 14, PM01183 […], Compound D 0.5 mg/kg): 15.0 mm | Total diameter (tumor + leg) ([3]; Day 21): 18.0 mm | Total diameter (tumor + leg) [3, 19]: 15.1 mm | Total diameter (tumor + leg) ([3]; Day 21, iv Days 0, 7 and 14, PM01183 […], Compound D 0.5 mg/kg): 18.0 mm | Total diameter (tumor + leg) [3, 20]: 16.3 mm
